From patent US9670162B2, “Mitochondrial aldehyde dehyrogenase-2 modulators and methods of use thereof” (The Board of Trustees of the Leland Stanford Junior …, priority 2013, dated 2017) come the findings set out here.

Each structure is given as a SMILES string.

For series [1], the target named is CYP2C19 (Homo sapiens, UniProt P33261). Briefly: Cyp inhibition 2C19. It is filed as in vitro ADME. Set-up: inhibition: dose or concentration left out as unconfirmed. As to the method: (§1) In vitro ADMET of compounds of the present disclosure was carried out according to known methods in the art. Below are data for certain compounds of the present disclosure.
Series [2] deals with CYP3A4 (Homo sapiens, UniProt P08684). The experiment in a line: Cyp inhibition 3A4. The format is in vitro ADME. The arrangement: inhibition: dose or concentration left out as unconfirmed. As to the method:
as §1

The nature of series [3]: RLM stability T1/2. The format is in vitro ADME. To be noted: rat, liver microsomes. As to the method: as §1
The nature of series [4]: MLM stability T1/2. Conditions: mouse, liver microsomes. It is filed as in vitro ADME. The method, then:
as §1
A general note: Liver microsomes are a subcellular fraction often used to study metabolism.

Series [5] can be described thus: HLM stability T1/2. The format is in vitro ADME. To be noted: human, liver microsomes; read-out: metabolism (HLM, t1/2). As to the method: as §1
Series [6] is described as follows: Caco-2 permeability. The format is in vitro ADME. Conditions: human. As to the method: as §1
(In general: Caco-2 monolayers are a common model of the intestinal barrier.)

Series [7] concerns unpurified human liver homogenates (liver mitochondria fraction), ALDH. The experiment in a line: ALDH activity in human liver biopsy samples. To be noted: 20 μM, acetaldehyde substrate, 750 μg protein. It is filed as biochemical. The method, then:
The study of compounds of the present disclosure on unpurified human liver homogenates was carried out according to methods known in the art. Briefly, 750 μg of the total unpurified protein from the liver mitochondria fraction was used in this assay. The kinetic increase of absorbance at λ340 nm was monitored for 15 minutes for NADH. For the first 3 minutes, the assay was carried in the absence of the substrate or AD-363 to establish the base line. As expected, no NADH production was detected. Substrate acetaldehyde was then added at the 3-min time point and the reaction monitored for the next 6 min to record the catalytic rate in the absence of an activator. Compound 161 (20 μM), was then added at the 9-min time point and the reaction monitored for the next 6 min to record the increase in catalytic rate.

The nature of series [8]: Aqueous solubility. It is filed as physicochemical. The method, then: as §1
The target of series [9] is T1, human ALDH2*2 recombinant mutant enzyme (E487K) (Homo sapiens, UniProt P05091, E504K).
T1 construct: His-tag (pTrcHis vector) (N); made in house; host or cells: E. coli BL21
T1 sequence (P05091 18-517 E504K): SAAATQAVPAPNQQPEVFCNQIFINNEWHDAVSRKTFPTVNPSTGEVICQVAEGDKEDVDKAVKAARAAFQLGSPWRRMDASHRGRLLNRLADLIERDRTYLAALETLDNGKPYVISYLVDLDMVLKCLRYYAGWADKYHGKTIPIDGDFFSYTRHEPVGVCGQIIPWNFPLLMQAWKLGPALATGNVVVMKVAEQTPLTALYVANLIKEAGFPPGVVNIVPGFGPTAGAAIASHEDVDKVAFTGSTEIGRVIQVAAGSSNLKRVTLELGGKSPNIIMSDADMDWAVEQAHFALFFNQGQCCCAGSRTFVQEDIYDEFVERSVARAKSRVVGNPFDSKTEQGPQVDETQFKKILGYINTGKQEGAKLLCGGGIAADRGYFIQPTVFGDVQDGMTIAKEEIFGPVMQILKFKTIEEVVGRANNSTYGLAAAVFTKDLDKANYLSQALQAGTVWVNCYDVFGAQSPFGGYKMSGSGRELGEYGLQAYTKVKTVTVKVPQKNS
The experiment in a line: ALDH2 enzymatic assay (NADH at 340 nm), recombinant mutant enzyme. To be noted: activation relative to benchmarks control 1 and compound 161. The format is biochemical. The arrangement: key: −: no activation or inhibition; +: activation less than control 1; ++: activation similar to control 1, within 10%; +++: activation more than control 1 and less than control (compound 161); ++++: activation similar to compound 161, within 10%.

Series [10] relates to ALDH-2 (or mutant) enzyme. Briefly: Rate of 4-HNE oxidation by ALDH-2. It is filed as biochemical. Conditions: 4-HNE substrate, O.D. 340 nm, 25° C. The method, then:
The effect of compound 161 on the rate of 4-HNE oxidation by ALDH-2 was carried out by methods known in the art. To each well of a 96-well flat bottom UV plate, the following reagents were sequentially added by pipetting:
50 μl of 100 mM sodium pyrophosphate decahydrate (NaPPi, pH 8.4)
25 μl of 10 mM nicotinamide adenine dinucleotide hydrate (NAD)
1 μl of 20 mM testing compound DMSO solution
The plate was then put on a shaker to mix the cocktails in wells. After 5 minutes of mixing, 1 ul of ALDH-2 (or mutant) enzyme was added to each well with the reagent cocktail. DMSO was used as blank control in the plate. The plate was again put on shaker for another 5 minutes of shaking to enhance bonding between testing compounds and the enzyme.
1 ul of 30 mM 4-HNE in water was then added to each of wells containing the above reaction mixture. After a short vigorous mixing, the UV plate was fed into a plate reader to measure kinetic optical density (O.D.) at wavelength 340 nm at 25° C. over 4 minutes. Each point of measurement was taken at a time interval of 40 seconds.

Series [11] in a line: Plasma protein binding (PPB), rat. It is filed as in vitro ADME. The method, then: as §1

Chain of CYP2C19 (P33261 whole entry): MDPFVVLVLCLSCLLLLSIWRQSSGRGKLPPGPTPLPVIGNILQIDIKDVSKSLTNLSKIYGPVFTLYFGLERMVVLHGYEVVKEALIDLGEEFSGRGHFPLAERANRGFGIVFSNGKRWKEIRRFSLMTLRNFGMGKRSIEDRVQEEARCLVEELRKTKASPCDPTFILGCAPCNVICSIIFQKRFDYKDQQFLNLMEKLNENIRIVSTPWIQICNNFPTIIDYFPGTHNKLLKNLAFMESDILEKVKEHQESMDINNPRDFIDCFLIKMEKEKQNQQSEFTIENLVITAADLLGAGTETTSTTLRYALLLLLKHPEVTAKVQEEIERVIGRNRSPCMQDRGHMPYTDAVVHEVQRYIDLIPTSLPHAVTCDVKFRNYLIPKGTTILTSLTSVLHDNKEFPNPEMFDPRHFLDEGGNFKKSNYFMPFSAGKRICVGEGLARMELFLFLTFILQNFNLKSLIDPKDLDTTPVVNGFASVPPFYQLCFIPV
Chain of CYP3A4 (P08684 whole entry): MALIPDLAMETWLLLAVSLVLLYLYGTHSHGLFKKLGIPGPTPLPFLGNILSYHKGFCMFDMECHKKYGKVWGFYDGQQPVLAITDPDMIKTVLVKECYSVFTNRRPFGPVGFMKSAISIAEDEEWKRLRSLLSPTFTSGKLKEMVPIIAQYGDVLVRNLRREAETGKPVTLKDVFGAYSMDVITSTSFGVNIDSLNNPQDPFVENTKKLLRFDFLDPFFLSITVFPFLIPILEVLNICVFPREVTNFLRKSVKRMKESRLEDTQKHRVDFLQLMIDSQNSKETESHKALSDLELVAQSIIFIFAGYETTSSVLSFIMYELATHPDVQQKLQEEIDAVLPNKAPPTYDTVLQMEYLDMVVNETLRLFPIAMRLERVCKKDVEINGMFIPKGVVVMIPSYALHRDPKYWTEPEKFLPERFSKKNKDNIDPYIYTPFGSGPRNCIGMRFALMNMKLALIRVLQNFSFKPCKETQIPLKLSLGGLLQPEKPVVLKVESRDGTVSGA

For `COc1ccc(CNC(=O)c2c(Cl)ccnc2OCC2CC2)cc1F` [Compound 161], the inhibition – broadly, the drop in the measured response relative to a control, in per cent – in [1] was found to be 16%; in series [2], 15%. In addition, the inhibition at 10 µM in [1] (10 μM) came to 15.9%; in series [2] (10 μM), 14.9%. Further, the results for the half-life in series [3], in series [4] and in series [5] were 0.974 min, 2.08 min and 12.4 min, respectively. Moreover, in [6] (A-B, read-out: absorption (Caco-2, Papp, A-B)), the Papp A→B (as a rule, how fast a substance crosses the layer from the apical side) was found to be 15.7 ×10⁻⁶ cm/s. For the same compound, the Papp B→A (usually how fast a substance crosses the layer from the basolateral side) in series [6] (B-A) worked out at 10.7 ×10⁻⁶ cm/s. Besides, in series [6] (ratio, read-out: Caco-2 Papp B-A/A-B), the efflux ratio stood at 0.68. In addition, the “increase of human liver enzyme's catalytic rate” value in [7] is on record as 2.38 folds. The “Aqu. Solu.” value in series [8] amounted to 28 µg/mL. The “ALDH2 (mutant)” value in series [9] was “++++”. For the same compound, the “rate of 4-HNE oxidation by ALDH-2” value in series [10] is given as “accelerate the rate of 4-HNE oxidation”. The free fraction (fraction unbound) (as a rule, the share of the substance not bound to proteins or other matrix) in series [11] was 0.039.
